Experimental data from US20100063085A1, “METHOD OF TREATING LEARNING IMPAIRMENT IN DOWN'S SYNDROME SUBJECTS” (University Court of The University of Dundee, priority 2008, published 2010).
Like-named read-outs stand apart in the source and are kept apart here.

How the values were obtained:
Type in all cases: biochemical
[1] = target: SAPK2a/p38 (Homo sapiens, UniProt Q16539); test: SAPK2a/p38 33P kinase assay; details: read-out: SAPK2a/p38 activity as percentage of control without inhibitor
Procedure: (§1) All assays (25.5 μl) were carried out at room temperature (21° C.) and were linear with respect to time and enzyme concentrations under the conditions used. Assays were performed for 30 minutes except assays for LCK and PKB which were performed for 15 minutes using Multidrop Micro reagent dispensers (Thermo Electron Corporation, Waltham, Mass. 02454, USA) in a 96-well format. The concentration of […] [γ-^33P] ATP (800 cpm/pmol) in the assays was one of three concentrations (5, 20 or 50 μM) in order to be at or below Km for ATP for the enzyme. Assays were initiated with MgATP and stopped by addition of 5 μl of 0.5M orthophosphoric acid. Assays were then harvested onto P81 filterplates using a unifilter harvester (PerkinElmer, Boston, Mass. 02118, USA), with a wash buffer of 50 mM orthophosphoric acid. Filterplates were then air dried overnight. 10 μl of Microscint O was added per well prior to counting for radioactivity.
(§2) MKK1, JNK/SAPK1c, SAPK2a/p38, SAPK2b/p38β2, SAPK3/p38γ, SAPK4/p38δ, MAPK2/ERK2, MAPKAP-K1β, MAPKAP-K2, MSK1, PRAK, PKA, PKCα, PDK1, SGK, p70S6K, GSK3β, ROCK-II, PRK2, AMPK, CHK1, CHK2, CK2, PHK, LCK, were assayed according to Davies et al., (Davies, S. P., Reddy, H., Caivano, M. and Cohen, P. Biochem. J. 351, 95-105, 2000.
(§3) CSK and CDK2/cyclinA, were assayed according to Bain et al. (Bain J, McLauchlan H, Elliott M, Cohen P. Biochem J. 371, 199-204, 2003., except that ATP concentrations were either 5, 20 or 50 micromolar so that they were at or below the Km for ATP. The ATP concentrations used were as follows, 5 μM for assays of MKK1, SAPK3, SAPK4, GSK3β, PRK2 CK2 20 μm for assays of JNK, SAPK2β, MAPKAP-K2, MSK1, PRAK, PKA, […], PDK1, SGK, p70S6K, ROCK-II, CHK1, CHK2, CSK, CDK2, and 50 μM for assays of SAPK2a, MAPK2/ERK2, AMPK, LCK, PHK and MAPKAP-K1β.

[2] = target: MAPKAP-K2 (Homo sapiens, UniProt P49137); test: MAPKAP-K2 33P kinase assay; details: read-out: MAPKAP-K2 activity as percentage of control without inhibitor
Sequence of MAPKAP-K2 (P49137 whole entry, species assumed): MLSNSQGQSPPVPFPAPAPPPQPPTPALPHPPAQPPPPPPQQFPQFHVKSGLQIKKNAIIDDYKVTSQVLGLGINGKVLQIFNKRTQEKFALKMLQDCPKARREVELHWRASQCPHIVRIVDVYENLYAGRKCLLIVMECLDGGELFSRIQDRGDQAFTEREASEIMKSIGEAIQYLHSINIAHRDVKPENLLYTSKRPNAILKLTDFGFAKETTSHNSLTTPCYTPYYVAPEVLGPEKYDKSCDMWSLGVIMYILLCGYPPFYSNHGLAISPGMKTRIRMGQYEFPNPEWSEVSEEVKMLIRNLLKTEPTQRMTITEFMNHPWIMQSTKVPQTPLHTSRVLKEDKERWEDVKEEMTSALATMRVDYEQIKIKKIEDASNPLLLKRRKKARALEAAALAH
Procedure: as §1, §2, §3

[3] = target: MSK1 (Homo sapiens, UniProt O75582); test: MSK1 33P kinase assay; details: read-out: MSK1 activity as percentage of control without inhibitor
Sequence of MSK1 (O75582 whole entry, species assumed): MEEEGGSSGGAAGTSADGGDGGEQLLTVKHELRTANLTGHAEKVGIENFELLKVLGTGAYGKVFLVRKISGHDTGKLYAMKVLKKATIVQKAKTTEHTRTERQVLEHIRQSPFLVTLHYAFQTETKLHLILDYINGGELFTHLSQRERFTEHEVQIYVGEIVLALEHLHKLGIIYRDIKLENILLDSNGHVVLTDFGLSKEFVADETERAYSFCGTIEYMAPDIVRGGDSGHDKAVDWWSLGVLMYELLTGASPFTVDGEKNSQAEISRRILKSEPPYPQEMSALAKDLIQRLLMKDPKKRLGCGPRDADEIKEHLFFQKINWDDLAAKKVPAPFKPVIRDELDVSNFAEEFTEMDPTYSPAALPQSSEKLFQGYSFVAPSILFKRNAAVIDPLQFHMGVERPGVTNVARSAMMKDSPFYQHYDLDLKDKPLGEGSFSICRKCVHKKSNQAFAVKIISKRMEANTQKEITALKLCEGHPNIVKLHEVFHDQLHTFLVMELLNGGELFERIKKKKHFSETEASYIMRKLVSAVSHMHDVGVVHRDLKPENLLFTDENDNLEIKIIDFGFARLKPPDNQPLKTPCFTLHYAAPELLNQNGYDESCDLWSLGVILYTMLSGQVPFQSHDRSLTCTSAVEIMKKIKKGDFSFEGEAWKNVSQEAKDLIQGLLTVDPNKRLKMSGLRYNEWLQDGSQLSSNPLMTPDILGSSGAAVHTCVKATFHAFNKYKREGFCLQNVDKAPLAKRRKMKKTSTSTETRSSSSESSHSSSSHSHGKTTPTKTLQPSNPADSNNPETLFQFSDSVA
Procedure: as §1, §2, §3

[4] = target: PKCa (Homo sapiens, UniProt P17252); test: PKCa 33P kinase assay; details: read-out: PKCa activity as percentage of control without inhibitor; for remaining activity at 1 µM: inhibitor 1 μM; for remaining activity at 10 µM: inhibitor 10 μM
Procedure: as §1, §2, §3

[5] = target: p70 S6K (Homo sapiens, UniProt P23443); test: p70 S6K 33P kinase assay; details: read-out: p70 S6K activity as percentage of control without inhibitor; for remaining activity at 1 µM: inhibitor 1 μM; for remaining activity at 10 µM: inhibitor 10 μM
Sequence of p70 S6K (P23443 whole entry): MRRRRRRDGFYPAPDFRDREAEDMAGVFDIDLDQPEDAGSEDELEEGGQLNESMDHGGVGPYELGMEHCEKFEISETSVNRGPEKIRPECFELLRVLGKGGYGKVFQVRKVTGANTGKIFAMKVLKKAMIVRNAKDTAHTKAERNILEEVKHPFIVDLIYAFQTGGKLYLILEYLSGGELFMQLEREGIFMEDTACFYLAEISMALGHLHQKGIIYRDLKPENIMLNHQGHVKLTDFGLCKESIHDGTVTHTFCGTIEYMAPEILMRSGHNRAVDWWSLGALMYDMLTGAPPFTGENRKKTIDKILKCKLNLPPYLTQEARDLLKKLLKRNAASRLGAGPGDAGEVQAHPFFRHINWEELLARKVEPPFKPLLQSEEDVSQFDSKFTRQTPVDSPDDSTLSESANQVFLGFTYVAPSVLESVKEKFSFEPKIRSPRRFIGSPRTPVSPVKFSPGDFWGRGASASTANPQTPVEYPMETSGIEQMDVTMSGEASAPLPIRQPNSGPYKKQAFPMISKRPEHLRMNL
Procedure: as §1, §2, §3

[6] = target: GSK3b (Homo sapiens, UniProt P49841); test: GSK3b 33P kinase assay; details: read-out: GSK3b activity as percentage of control without inhibitor
Sequence of GSK3b (P49841 whole entry, species assumed): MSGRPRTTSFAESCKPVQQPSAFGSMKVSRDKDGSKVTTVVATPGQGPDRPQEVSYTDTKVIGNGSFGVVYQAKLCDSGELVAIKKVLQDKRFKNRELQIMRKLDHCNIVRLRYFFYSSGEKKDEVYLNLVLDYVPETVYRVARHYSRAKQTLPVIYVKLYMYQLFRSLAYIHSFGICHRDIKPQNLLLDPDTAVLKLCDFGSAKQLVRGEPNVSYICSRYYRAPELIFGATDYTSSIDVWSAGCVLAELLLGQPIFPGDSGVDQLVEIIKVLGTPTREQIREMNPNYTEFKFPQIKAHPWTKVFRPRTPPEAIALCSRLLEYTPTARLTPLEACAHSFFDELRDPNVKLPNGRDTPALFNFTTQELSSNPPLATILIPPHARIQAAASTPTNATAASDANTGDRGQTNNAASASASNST
Procedure: as §1, §2, §3

[7] = target: CHK2 (Homo sapiens, UniProt O96017); test: CHK2 33P kinase assay; details: read-out: CHK2 activity as percentage of control without inhibitor
Sequence of CHK2 (O96017 whole entry, species assumed): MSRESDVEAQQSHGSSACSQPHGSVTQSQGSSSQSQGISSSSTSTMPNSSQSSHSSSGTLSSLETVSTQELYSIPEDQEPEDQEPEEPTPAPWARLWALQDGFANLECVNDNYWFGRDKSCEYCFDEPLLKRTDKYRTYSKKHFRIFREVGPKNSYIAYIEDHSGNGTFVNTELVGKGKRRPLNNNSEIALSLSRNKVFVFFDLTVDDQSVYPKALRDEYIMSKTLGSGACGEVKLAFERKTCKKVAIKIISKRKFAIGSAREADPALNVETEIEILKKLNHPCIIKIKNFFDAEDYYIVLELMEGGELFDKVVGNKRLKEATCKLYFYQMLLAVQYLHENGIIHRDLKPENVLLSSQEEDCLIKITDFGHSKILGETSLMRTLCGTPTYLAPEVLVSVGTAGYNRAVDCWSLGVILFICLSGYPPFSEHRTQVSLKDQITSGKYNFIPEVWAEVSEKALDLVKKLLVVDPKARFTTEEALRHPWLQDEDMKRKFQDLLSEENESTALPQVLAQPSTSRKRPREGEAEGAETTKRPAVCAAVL
Procedure: as §1, §2, §3

[8] = test system: PHK; test: PHK 33P kinase assay
Procedure: as §1, §2, §3

[9] = target: CDK2/cyclin A (Homo sapiens, UniProt P24941); test: CDK2/cyclin A 33P kinase assay; details: read-out: CDK2/cyclin A activity as percentage of control without inhibitor
Procedure: as §1, §3

[10] = target: DYRK2 (Homo sapiens, UniProt Q92630); test: DYRK2 33P kinase assay (analogous to DYRK1a); details: ATP at 50 μM; half log dilutions starting at 100 μM
Sequence of DYRK2 (Q92630 whole entry, species assumed): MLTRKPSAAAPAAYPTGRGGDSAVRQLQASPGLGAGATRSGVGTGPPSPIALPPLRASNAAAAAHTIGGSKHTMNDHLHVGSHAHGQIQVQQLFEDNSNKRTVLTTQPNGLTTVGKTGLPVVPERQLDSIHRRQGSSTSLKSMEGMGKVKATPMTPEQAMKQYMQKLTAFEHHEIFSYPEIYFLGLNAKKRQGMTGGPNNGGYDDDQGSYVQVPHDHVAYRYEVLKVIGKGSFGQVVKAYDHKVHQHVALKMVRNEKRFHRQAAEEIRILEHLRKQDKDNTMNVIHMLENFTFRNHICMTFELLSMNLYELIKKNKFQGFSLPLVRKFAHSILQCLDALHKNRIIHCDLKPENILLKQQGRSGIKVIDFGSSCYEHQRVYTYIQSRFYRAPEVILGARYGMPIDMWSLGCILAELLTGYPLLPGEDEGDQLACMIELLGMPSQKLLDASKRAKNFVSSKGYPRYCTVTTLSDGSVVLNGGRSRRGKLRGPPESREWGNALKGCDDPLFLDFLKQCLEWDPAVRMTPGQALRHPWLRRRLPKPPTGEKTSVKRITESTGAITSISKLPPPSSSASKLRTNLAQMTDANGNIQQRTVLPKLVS
Procedure: (§4) DYRK1A (5-20 mU of diluted in 50 mM Tris pH 7.5, 0.1 mM EGTA) was assayed against Woodtide ([…]) in a final volume of 25.5 μl containing 50 mM Tris pH 7.5, 0.1 mM EGTA, 350 uM substrate peptide, 10 mM magnesium acetate and 0.5 μl inhibitor and incubated at room temperature for 5 mins, followed by the addition of 0.05 mM [33P-gamma-ATP] (50-1000 cpm/pmole) and incubated for 30 mins at room temperature. Assays were stopped by addition of 5 μl of 0.5 M (3%) orthophosphoric acid then harvested onto P81 Unifilter plates with a wash buffer of 50 mM orthophosphoric acid. Filterplates were then air dried overnight. 10 μl of Microscint O was added per well prior to counting for radioactivity.
DYR2 and DYRK3 were assayed in an analogous manner to that described above for DYRK1a.

[11] = target: DYRK3 (Homo sapiens, UniProt O43781); test: DYRK3 33P kinase assay (analogous to DYRK1a); details: ATP at 50 μM; half log dilutions starting at 100 μM
Sequence of DYRK3 (O43781 whole entry, species assumed): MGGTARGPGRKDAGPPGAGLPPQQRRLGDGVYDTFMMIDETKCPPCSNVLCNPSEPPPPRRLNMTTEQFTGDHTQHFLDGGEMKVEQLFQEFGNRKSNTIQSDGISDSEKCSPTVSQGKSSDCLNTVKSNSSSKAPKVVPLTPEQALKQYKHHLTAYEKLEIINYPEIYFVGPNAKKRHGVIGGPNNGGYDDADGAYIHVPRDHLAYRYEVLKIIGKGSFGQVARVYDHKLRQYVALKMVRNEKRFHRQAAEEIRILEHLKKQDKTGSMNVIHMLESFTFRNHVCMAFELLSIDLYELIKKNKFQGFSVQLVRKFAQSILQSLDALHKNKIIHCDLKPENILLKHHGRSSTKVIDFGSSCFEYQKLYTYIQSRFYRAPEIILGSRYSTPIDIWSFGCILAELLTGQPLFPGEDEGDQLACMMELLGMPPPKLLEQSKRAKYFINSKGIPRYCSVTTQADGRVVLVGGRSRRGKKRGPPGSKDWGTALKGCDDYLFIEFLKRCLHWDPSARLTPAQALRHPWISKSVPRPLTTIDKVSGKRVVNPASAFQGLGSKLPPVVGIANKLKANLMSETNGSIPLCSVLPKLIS
Procedure: as §4

Sequence of SAPK2a/p38 (Q16539 whole entry): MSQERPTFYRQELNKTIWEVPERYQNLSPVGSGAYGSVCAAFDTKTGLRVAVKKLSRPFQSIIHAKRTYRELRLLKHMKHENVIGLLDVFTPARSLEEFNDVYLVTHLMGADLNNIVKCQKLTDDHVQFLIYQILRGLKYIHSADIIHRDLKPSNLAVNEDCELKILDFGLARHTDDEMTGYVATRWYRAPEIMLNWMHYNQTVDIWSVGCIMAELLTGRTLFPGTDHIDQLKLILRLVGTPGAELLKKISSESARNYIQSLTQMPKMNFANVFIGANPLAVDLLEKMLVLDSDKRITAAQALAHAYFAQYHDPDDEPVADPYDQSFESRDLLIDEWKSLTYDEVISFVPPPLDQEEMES

Structure (SMILES)	remaining activity at 1 µM [1] [%]	remaining activity at 10 µM [1] [%]	remaining activity at 1 µM ([2]; inhibitor 1 μM) [%]	remaining activity at 10 µM ([2]; inhibitor 10 μM) [%]	remaining activity at 1 µM ([3]; inhibitor 1 μM) [%]	remaining activity at 10 µM ([3]; inhibitor 10 μM) [%]	remaining activity at 1 µM [4] [%]	remaining activity at 10 µM [4] [%]	remaining activity at 1 µM [5] [%]	remaining activity at 10 µM [5] [%]	remaining activity at 1 µM [6] [%]	remaining activity at 10 µM [6] [%]	remaining activity at 1 µM ([7]; inhibitor 1 μM) [%]	remaining activity at 10 µM ([7]; inhibitor 10 μM) [%]	PHK activity as percentage of control without inhibitor ([8]; inhibitor 1 μM) [%]	PHK activity as percentage of control without inhibitor ([8]; inhibitor 10 μM) [%]	remaining activity at 1 µM [9] [%]	remaining activity at 10 µM [9] [%]	other results
COc1ccc2c3c([nH]c2c1)C(C)=NCC3 [Harmaline]	89	86	104	112	98	111	88	81	71	83	77	82	89	89	73	88	99	98	
CC1=NCCc2c1[nH]c1cc(O)ccc21 [Harmalol]			79	69	84	59	109	78	95	69			76	57	101	63			remaining activity at 1 µM ([1]; inhibitor 1 μM): 95%; remaining activity at 10 µM ([1]; inhibitor 10 μM): 74%; remaining activity at 1 µM ([6]; inhibitor 1 μM): 90%; remaining activity at 10 µM ([6]; inhibitor 10 μM): 73%; remaining activity at 1 µM ([9]; inhibitor 1 μM): 97%; remaining activity at 10 µM ([9]; inhibitor 10 μM): 77%
COc1ccc2c(c1)[nH]c1c(C)nccc12 [Harmine]	95	81					96	101	90	93	82	72			103	82	98	62	remaining activity at 1 µM [2]: 78%; remaining activity at 10 µM [2]: 82%; remaining activity at 1 µM [3]: 90%; remaining activity at 10 µM [3]: 88%; remaining activity at 1 µM [7]: 78%; remaining activity at 10 µM [7]: 79%; IC50 [10]: 900 nM; IC50 [11]: 800 nM
